Laboratory results from US5140025A, “Thienotricylene for the treatment of bronchial diseases” (BYK Gulden Lomberg Chemische Fabrik GmbH, priority 1987, dated 1992).
Read-outs that look alike come from different tables or passages of the source.

System: modified Shay rat (lesion formation and acid secretion)
Experiment: Antiulcerogenic and secretion-inhibiting action on the modified Shay rat
Type: in vivo
Details: Rattus norvegicus, iv, 4 h, modified Shay rat, i.v., interpolated dose, 4 h, N=24
Text: The excellent gastric protective action and the gastric secretion-inhibiting action of the compound (+)-4,9-dihydro-3-methyl-4-[(4-methyl-1-piperazinyl)-acetyl]-10H-thieno[3,4-b][1,5]benzodiazepin-10-one (=compound 1 in Table 8 below) in comparison with the corresponding (-)-enantiomer (=compound 3) and with the racemate (=compound 2) can be detected in studies on the modified Shay rat. The effect of the stated compounds after intravenous (i.v.) administration on the formation of lesions and the acid secretion in the modified Shay rat is shown in Table 8 below.
Ulcers are provoked in rats (female, 180-200 g, 4 animals per cage on high grids) which have fasted for 24 hours, by pylorus ligature (under diethyl ether anaesthesia) and oral administration of 100 mg/10 ml/kg of acetylsalicylic acid. The substances to be tested are administered intravenously (1 ml/kg) directly after the pylorus ligature. The wound is closed by means of Michel clamps. 4 hours afterwards, the animals are sacrificed under anaesthesia with ether by Atlas dislocation, and resection of the stomach.
The stomach is opened along the greater curvature and clamped to a cork sheet, the amount of secreted gastric juice (volume) is determined first and its HCl content (titration with sodium hydroxide solution) being determined subsequently. The number and size (=diameter) of ulcers present are determined using a stereomicroscope, under 10×magnification. The product of severity (according to the following point scale) and number of ulcers serves as an individual lesion index.
The reduction in the means lesion index of each treated group compared with the control group (=100%) serves as a measure of the antiulcerogenic effect. The ED50 is the dose which reduces the mean lesion index or the HCl secretion by 50% compared with the control.

## Cc1scc2c1N(C(=O)CN1CCN(C)CC1)c1ccccc1NC2=O (racemic) [(±)-telenzepine, 4,9-dihydro-3-methyl-4-[(4-methyl-1-piperazinyl)-acetyl]-10H-thieno[3,4-b][1,5]benzodiazepin-10-one]
read-out: Gastric protective action, reduction of lesion index, about ED50
  ED50: ~0.042 mg/kg
read-out: Inhibition of acid secretion, reduction of HCl secretion, about ED50
  ED50: ~0.18 mg/kg
